Results from ChEMBL document CHEMBL5727115, “TYK2 inhibitors and uses thereof” (2019).

Biological target: Non-receptor tyrosine-protein kinase TYK2 (Homo sapiens, UniProt P29597)
Test: TYK2 JH2 Domain Binding Assay: Binding constants for compounds of the present invention against the JH2 domain were determined by the following protocol for a KINOMEscan® assay (DiscoveRx). A fusion protein of a partial length construct of human TYK2 (JH2domain-pseudokinase) (amino acids G556 to D888 based on reference sequence NP_003322.3) and the DNA binding domain of NFkB was expressed in transiently transfected HEK293 cells. From these HEK 293 cells, extracts were prepared in M-PER extraction buffer (Pierce) in the presence of Protease Inhibitor Cocktail Complete (Roche) and Phosphatase Inhibitor Cocktail Set II (Merck) per manufacturers' instructions. The TYK2 (JH2domain-pseudokinase) fusion protein was labeled with a chimeric double-stranded DNA tag containing the NFkB binding site (5′-GGGAATTCCC-3′ (SEQ ID NO: 1)) fused to an amplicon for qPCR readout, which was added directly to the expression extract (the final concentration of DNA-tag in the binding reaction is 0.1 nM).Streptavidin-coated magnetic beads (Dynal M280) were treated with a biotinylated small molecule ligand for 30 minutes at room temperature to generate affinity resins the binding assays. […]
Format: cell-based

Chain of Non-receptor tyrosine-protein kinase TYK2 (P29597 whole entry, the tested form may be a part): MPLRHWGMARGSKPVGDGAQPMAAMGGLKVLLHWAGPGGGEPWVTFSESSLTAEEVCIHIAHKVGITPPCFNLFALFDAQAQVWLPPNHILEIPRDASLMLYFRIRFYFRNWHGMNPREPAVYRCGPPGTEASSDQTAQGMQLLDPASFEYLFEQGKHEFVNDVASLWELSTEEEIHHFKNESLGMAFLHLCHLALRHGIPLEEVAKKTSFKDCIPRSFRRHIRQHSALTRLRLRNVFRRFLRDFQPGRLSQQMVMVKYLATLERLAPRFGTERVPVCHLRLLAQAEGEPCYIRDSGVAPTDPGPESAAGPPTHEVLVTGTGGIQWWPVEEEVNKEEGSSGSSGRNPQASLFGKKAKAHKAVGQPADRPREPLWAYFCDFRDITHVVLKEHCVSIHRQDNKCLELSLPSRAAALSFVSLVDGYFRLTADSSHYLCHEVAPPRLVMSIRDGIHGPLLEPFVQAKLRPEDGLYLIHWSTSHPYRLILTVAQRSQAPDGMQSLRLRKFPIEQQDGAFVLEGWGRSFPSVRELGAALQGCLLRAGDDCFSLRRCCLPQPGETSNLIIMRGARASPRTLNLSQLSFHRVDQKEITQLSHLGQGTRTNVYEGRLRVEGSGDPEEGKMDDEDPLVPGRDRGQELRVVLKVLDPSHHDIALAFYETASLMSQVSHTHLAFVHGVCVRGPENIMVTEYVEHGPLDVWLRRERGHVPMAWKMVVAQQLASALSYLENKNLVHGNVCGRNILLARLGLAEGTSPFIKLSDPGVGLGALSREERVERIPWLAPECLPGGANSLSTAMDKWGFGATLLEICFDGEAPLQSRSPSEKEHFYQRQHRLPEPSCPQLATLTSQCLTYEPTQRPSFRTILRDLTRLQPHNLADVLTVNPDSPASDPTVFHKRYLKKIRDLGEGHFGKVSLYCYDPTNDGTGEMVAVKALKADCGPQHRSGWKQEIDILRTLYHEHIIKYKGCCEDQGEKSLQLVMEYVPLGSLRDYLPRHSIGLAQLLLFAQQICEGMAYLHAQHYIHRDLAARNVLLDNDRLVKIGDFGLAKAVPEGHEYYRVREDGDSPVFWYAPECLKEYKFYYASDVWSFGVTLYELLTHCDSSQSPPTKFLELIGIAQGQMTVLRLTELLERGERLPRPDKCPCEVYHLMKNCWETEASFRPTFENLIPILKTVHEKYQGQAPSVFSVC

COc1cc(Cl)ccc1Nc1cc(Nc2cc(C)ccn2)nc2[nH]n(C)c(=O)c12
Kd: > 10 nM
